From article PMC5341070, “Small molecule inhibitors block Gas6-inducible TAM activation and tumorigenicity” (Scientific Reports, 2017) come the findings set out here.

Holding throughout (assay): biochemical
One assay deals with VEGFR2 (Homo sapiens, UniProt P35968). More on the design: gene KDR; KINOMEscan (DiscoverX) competition binding screen of 97 human kinases, percent of control at 10 uM. The procedure:
(§1) The KINOMEscan profiling of the inhibitors were performed as per directions by the manufacturer (DiscoverX) against a panel of human protein kinases.

The next assay addresses BRAF (Homo sapiens, UniProt P15056). More on the design: KINOMEscan (DiscoverX) competition binding screen of 97 human kinases, percent of control at 10 uM. The procedure:
as §1

The target of another assay is T1, YANK3 (Homo sapiens, UniProt Q86UX6).
T1 construct: gene STK32C
More on the design: KINOMEscan (DiscoverX) competition binding screen of 97 human kinases, percent of control at 10 uM. The procedure:
as §1

In another assay the target is CSNK1G2 (Homo sapiens, UniProt P78368). On the set-up: KINOMEscan (DiscoverX) competition binding screen of 97 human kinases, percent of control at 10 uM. The procedure:
as §1

A further assay concerns the target CDK3 (Homo sapiens, UniProt Q00526). More on the design: KINOMEscan (DiscoverX) competition binding screen of 97 human kinases, percent of control at 10 uM. The procedure: as §1
The target in a further assay is AURKA (Homo sapiens, UniProt O14965). More on the design: KINOMEscan (DiscoverX) competition binding screen of 97 human kinases, percent of control at 10 uM. The procedure: as §1
For a further assay, the target named is PDGFRB (Homo sapiens, UniProt P09619). More on the design: KINOMEscan (DiscoverX) competition binding screen of 97 human kinases, percent of control at 10 uM. The procedure: as §1
The target of the next assay is T2, PKAC-alpha (Homo sapiens, UniProt P17612).
T2 construct: gene PRKACA
More on the design: KINOMEscan (DiscoverX) competition binding screen of 97 human kinases, percent of control at 10 uM. The procedure:
as §1

The next assay addresses MAPKAPK2 (Homo sapiens, UniProt P49137). On the set-up: KINOMEscan (DiscoverX) competition binding screen of 97 human kinases, percent of control at 10 uM. The procedure:
as §1

Another assay addresses PIM2 (Homo sapiens, UniProt Q9P1W9). More on the design: KINOMEscan (DiscoverX) competition binding screen of 97 human kinases, percent of control at 10 uM. The procedure:
as §1

The target of another assay is RAF1 (Homo sapiens, UniProt P04049). On the set-up: KINOMEscan (DiscoverX) competition binding screen of 97 human kinases, percent of control at 10 uM. The procedure: as §1
Another assay deals with BRAF(V600E) (Homo sapiens, UniProt P15056, V600E). On the set-up: KINOMEscan (DiscoverX) competition binding screen of 97 human kinases, percent of control at 10 uM. The procedure:
as §1

The next assay deals with MKNK2 (Homo sapiens, UniProt Q9HBH9). More on the design: KINOMEscan (DiscoverX) competition binding screen of 97 human kinases, percent of control at 10 uM. The procedure:
as §1

In another assay the target is ALK (Homo sapiens, UniProt Q9UM73). On the set-up: KINOMEscan (DiscoverX) competition binding screen of 97 human kinases, percent of control at 10 uM. The procedure:
as §1

In a further assay the target is T3, IKK-beta (Homo sapiens, UniProt O14920).
T3 construct: gene IKBKB
On the set-up: KINOMEscan (DiscoverX) competition binding screen of 97 human kinases, percent of control at 10 uM. The procedure: as §1

Assay [1] concerns the target T4, ABL1(T315I)-phosphorylated (Homo sapiens, UniProt P00519, T315I).
T4 construct: phosphorylated
More on the design: KINOMEscan (DiscoverX) competition binding screen of 97 human kinases, percent of control at 10 uM. The procedure: as §1

Another assay concerns the target IGF1R (Homo sapiens, UniProt P08069). On the set-up: KINOMEscan (DiscoverX) competition binding screen of 97 human kinases, percent of control at 10 uM. The procedure: as §1
The target of a further assay is T5, IKK-alpha (Homo sapiens, UniProt O15111).
T5 construct: gene CHUK
More on the design: KINOMEscan (DiscoverX) competition binding screen of 97 human kinases, percent of control at 10 uM. The procedure:
as §1

The target of a further assay is PLK1 (Homo sapiens, UniProt P53350). More on the design: KINOMEscan (DiscoverX) competition binding screen of 97 human kinases, percent of control at 10 uM. The procedure:
as §1

In the next assay the target is PIK3CG (Homo sapiens, UniProt P48736). On the set-up: KINOMEscan (DiscoverX) competition binding screen of 97 human kinases, percent of control at 10 uM. The procedure:
as §1

The target in another assay is DYRK1B (Homo sapiens, UniProt Q9Y463). On the set-up: KINOMEscan (DiscoverX) competition binding screen of 97 human kinases, percent of control at 10 uM. To be noted: binding competition, % of control. The procedure: as §1
A further assay addresses CDK7 (Homo sapiens, UniProt P50613). On the set-up: KINOMEscan (DiscoverX) competition binding screen of 97 human kinases, percent of control at 10 uM. The procedure:
as §1

Assay [2] addresses T6, JAK2(JH1domain-catalytic) (Homo sapiens, UniProt O60674).
T6 construct: JH1domain-catalytic
More on the design: KINOMEscan (DiscoverX) competition binding screen of 97 human kinases, percent of control at 10 uM. The procedure: as §1

[3] abbreviates: read-out: R428 %Ctrl @ 10000nM, binding competition.
Setting [4] is: binding competition, % of control, read-out: RU-301 %Ctrl @ 10000nM.

Like-named read-outs stand apart in the source and are kept apart here.

Chain of PDGFRB (P09619 whole entry): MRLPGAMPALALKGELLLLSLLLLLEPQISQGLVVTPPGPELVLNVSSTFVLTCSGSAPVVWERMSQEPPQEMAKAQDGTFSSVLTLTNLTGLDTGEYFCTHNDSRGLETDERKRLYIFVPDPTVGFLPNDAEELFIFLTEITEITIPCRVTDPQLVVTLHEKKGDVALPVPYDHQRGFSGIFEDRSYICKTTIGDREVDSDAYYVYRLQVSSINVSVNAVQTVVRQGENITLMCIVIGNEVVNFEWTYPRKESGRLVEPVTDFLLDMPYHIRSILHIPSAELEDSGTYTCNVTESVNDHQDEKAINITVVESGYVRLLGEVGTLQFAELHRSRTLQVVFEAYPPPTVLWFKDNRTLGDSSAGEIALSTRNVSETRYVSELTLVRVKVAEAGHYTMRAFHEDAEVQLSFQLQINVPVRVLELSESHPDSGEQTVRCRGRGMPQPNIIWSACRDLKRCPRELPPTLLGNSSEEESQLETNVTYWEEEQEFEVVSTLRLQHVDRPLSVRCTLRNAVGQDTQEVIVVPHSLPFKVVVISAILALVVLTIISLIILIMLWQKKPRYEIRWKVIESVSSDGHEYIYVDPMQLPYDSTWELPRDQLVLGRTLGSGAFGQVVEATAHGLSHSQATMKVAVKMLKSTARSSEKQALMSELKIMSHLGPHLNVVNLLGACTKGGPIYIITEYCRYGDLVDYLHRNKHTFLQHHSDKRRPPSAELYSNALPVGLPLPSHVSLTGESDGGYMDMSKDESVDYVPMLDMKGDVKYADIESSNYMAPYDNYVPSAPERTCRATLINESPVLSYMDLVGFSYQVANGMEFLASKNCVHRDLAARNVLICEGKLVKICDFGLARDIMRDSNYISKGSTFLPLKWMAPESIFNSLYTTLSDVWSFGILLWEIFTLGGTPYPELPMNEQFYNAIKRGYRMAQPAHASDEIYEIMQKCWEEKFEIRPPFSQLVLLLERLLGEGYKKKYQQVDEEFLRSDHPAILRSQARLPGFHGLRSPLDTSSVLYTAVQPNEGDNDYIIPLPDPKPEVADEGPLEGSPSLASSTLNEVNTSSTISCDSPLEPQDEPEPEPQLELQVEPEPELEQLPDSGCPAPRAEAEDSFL
Chain of BRAF (P15056 whole entry): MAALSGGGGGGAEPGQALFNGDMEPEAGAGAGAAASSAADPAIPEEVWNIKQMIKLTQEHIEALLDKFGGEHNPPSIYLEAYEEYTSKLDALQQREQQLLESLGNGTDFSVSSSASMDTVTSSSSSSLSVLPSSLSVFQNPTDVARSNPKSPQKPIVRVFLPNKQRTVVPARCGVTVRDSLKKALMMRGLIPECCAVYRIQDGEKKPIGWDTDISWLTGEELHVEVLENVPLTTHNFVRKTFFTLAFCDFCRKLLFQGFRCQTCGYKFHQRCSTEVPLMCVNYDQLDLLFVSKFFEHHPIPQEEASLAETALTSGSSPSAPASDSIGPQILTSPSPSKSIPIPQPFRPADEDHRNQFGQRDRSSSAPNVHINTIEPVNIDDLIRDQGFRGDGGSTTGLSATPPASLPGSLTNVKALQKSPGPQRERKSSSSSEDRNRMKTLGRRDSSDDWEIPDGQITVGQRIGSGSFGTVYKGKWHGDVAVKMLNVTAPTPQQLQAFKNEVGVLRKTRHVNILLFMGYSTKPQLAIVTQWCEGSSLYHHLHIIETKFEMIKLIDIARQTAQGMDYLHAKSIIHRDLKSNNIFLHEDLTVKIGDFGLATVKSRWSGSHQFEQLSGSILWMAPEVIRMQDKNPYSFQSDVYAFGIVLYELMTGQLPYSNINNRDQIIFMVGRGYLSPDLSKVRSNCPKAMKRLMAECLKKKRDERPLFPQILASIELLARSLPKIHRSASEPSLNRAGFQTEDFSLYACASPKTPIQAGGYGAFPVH
T1 sequence (Q86UX6 whole entry): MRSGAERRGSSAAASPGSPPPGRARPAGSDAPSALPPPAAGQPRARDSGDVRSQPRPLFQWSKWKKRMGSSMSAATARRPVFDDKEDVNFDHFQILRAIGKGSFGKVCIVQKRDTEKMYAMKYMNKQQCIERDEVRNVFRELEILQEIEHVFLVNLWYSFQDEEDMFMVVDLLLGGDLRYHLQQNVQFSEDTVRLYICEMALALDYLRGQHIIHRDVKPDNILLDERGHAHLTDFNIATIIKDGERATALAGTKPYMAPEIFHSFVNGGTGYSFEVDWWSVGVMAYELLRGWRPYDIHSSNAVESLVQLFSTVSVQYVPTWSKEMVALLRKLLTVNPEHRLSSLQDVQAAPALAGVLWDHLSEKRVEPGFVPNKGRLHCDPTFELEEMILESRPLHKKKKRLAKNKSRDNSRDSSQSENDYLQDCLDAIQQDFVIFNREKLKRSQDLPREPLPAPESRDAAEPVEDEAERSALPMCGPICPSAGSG
Chain of MAPKAPK2 (P49137 whole entry): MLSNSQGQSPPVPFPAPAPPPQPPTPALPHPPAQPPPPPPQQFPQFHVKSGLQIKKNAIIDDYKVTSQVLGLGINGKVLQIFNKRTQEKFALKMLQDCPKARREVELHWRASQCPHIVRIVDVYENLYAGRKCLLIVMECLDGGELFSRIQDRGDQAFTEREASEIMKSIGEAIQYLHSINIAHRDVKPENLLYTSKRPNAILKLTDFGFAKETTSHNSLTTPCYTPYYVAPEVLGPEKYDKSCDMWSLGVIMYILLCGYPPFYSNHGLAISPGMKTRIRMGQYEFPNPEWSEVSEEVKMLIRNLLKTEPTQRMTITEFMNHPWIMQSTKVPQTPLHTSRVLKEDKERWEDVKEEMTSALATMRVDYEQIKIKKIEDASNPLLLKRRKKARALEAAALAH
T3 sequence (O14920 whole entry): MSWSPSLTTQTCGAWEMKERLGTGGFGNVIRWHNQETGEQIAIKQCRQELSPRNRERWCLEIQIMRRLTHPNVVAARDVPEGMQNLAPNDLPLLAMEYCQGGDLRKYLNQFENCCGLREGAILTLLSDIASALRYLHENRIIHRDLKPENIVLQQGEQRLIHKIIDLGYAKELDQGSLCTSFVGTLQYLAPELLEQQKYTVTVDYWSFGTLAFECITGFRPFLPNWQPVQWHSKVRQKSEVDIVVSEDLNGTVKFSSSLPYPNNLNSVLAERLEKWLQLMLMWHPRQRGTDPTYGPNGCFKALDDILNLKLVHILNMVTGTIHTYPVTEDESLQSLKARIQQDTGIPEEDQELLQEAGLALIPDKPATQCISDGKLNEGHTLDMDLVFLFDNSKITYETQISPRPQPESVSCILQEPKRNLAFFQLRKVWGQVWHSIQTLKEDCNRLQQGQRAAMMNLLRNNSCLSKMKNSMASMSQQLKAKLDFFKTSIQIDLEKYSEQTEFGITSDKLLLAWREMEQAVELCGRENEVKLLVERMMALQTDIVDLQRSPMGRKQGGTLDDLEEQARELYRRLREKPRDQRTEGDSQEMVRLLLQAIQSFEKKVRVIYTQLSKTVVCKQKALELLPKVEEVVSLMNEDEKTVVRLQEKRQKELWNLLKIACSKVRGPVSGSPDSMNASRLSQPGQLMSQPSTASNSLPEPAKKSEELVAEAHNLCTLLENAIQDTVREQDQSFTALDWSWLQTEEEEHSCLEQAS
Chain of MKNK2 (Q9HBH9 whole entry): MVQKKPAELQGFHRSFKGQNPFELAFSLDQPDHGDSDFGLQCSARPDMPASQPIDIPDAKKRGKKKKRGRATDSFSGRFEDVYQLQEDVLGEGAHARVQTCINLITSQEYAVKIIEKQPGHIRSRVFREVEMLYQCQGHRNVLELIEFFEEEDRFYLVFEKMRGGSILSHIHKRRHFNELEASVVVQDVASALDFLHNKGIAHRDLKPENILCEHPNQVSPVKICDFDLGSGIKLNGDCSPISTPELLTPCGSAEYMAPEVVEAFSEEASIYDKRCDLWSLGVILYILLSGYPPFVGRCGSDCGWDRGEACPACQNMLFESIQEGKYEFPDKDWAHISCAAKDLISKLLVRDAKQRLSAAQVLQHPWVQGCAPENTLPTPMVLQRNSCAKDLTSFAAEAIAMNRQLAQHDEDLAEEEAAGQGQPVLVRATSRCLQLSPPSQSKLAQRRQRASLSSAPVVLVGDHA
Chain of BRAF(V600E) (P15056 whole entry V600E): as the sequence (P15056 whole entry) above, with V600E counted along it
Chain of PLK1 (P53350 whole entry): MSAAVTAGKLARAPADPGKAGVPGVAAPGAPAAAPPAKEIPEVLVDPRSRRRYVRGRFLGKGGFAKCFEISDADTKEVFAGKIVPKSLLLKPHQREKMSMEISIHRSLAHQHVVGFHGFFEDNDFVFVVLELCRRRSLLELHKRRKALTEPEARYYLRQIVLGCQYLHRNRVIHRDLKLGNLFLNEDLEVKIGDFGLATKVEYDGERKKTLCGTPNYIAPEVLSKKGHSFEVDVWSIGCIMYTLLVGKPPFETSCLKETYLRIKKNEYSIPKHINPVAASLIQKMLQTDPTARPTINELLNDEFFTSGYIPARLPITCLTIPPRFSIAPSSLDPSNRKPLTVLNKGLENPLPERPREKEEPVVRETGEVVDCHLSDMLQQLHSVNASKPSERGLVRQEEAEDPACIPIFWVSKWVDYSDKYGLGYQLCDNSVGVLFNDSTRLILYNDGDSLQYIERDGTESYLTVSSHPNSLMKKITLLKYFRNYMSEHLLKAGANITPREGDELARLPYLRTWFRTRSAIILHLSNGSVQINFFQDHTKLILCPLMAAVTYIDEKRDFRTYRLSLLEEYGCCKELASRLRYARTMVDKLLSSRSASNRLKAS
Chain of CDK3 (Q00526 whole entry): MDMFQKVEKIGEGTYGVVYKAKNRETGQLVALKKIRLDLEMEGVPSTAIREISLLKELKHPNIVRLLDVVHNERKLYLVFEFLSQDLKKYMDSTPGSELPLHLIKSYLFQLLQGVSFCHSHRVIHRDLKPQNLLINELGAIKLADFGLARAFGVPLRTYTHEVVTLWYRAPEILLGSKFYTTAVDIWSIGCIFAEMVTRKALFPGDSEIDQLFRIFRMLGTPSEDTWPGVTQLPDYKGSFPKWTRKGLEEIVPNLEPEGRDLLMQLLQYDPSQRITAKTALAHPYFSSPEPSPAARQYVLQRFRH

On to `Nc1nc(Nc2ccc3c(c2)CC[C@@H](N2CCCC2)CC3)nn1-c1cc2c(nn1)-c1ccccc1CCC2` [R428], for which the percent of control binding at 10 µM worked out at 1% at VEGFR2 (setting [3]); 64% on BRAF (setting [3]); 100% at YANK3 (setting [3]); 4.6% on CSNK1G2 (setting [3]); 72% on CDK3 (setting [3]); 0.15% on AURKA (setting [3]). Besides, the percent of control binding at 10 µM at PDGFRB (setting [3]) was 0%; at PKAC-alpha (setting [3]), 48%; at MAPKAPK2 (setting [3]) it was 87%; at PIM2 (setting [3]) it was 100%; at RAF1 (setting [3]), 100%; at BRAF(V600E) (setting [3]), 70%. The percent of control binding at 10 µM at MKNK2 (setting [3]) was found to be 0%; at ALK (setting [3]) it was 60%; on IKK-beta (setting [3]), 4.8%; in [1] (setting [3]), 0.9%; at IGF1R (setting [3]), 99%; at IKK-alpha (setting [3]), 0.5%. For the same compound, the percent of control binding at 10 µM at PLK1 (setting [3]) amounted to 2.9%; on PIK3CG (setting [3]), 21%; at CDK7 (setting [3]) it was 23%; in assay [2] (setting [3]), 0%. For the same compound, the remaining binding at 10 µM on DYRK1B (read-out: R428 %Ctrl @ 10000nM) was 46%.

With `Cc1cc(CSc2ccccc2C(=O)NCCNc2ccc(C(F)(F)F)cc2[N+](=O)[O-])on1` [RU-301], the remaining binding at 10 µM on VEGFR2 (setting [4]) is 99%; at BRAF (setting [4]), 99%; at YANK3 (setting [4]), 100%; at CSNK1G2 (setting [4]), 100%; on CDK3 (setting [4]), 93%; at AURKA (setting [4]), 89%. For the same compound, the remaining binding at 10 µM at PDGFRB (setting [4]) was determined as 91%; at PKAC-alpha (setting [4]) it was 90%; at MAPKAPK2 (setting [4]) it was 100%; on PIM2 (setting [4]) it was 83%; on RAF1 (setting [4]) it was 84%; on BRAF(V600E) (setting [4]), 94%. Further, the remaining binding at 10 µM on MKNK2 (setting [4]) stood at 100%; at ALK (setting [4]) it was 100%; at IKK-beta (setting [4]) it was 100%; in [1] (setting [4]) it was 100%; at IGF1R (setting [4]), 98%; on IKK-alpha (setting [4]) it was 86%. Also, the remaining binding at 10 µM on PLK1 (setting [4]) was determined as 95%; on PIK3CG (setting [4]), 100%; at DYRK1B (read-out: RU-301 %Ctrl @ 10000nM) it was 100%; on CDK7 (setting [4]), 85%; in [2] (setting [4]), 87%.
